Test results published in the OligoGym collection.
Where “and” joins values, the source holds several entries; their conditions need not be identical. Equal values may be shown once. After the bases stand the sugars from the 5' end (letter, count) and the backbone: PS all phosphorothioate, else s phosphorothioate and o phosphodiester by linkage. Methylation of C is not given here. e = 2'-O-(2-methoxyethyl) (MOE); k = constrained ethyl (cEt); d = 2'-deoxy (DNA)

Legend:
[1] = target: DGAT2; conditions: ASO
[2] = target: SOD1; conditions: ASO

| Sequence | target mRNA inhibition ([1]; HepG2, 2.5 µM) | target mRNA inhibition ([1]; HepG2, 10 µM) | target mRNA inhibition ([1]; HepG2, 0.12 µM) [%] | further results |
| --- | --- | --- | --- | --- |
| AAAACAGGGTACAACTCTCT (sugars e5 d10 e5, PS) | 73% and 59% | 91% and 87% | – | – |
| AAAACCAGTTACTCCACCTA (sugars e5 d10 e5, PS) | – | – | 0 | – |
| AAAACTTAGGCATGCTTCCT (sugars e5 d10 e5, PS) | 53% | 83% | – | – |
| AAAAGGAGTTTGTGTTTCCC (sugars e5 d10 e5, PS) | 84% and 86% | 92% and 95% | – | – |
| AAACACCAGCCAAGTGAAGT (sugars e5 d10 e5, PS) | – | – | 9 | – |
| AAAGCAAATAGTCTATGGTG (sugars e5 d10 e5, PS) | – | – | 46 | – |
| AAAGTCTGACATGGTGC (sugars e3 d10 e4, PS) | 48% | 81% | – | – |
| AAATCACAGAATTATCAGCA (sugars e5 d10 e5, PS) | 57% | 92% | – | – |
| AACCCACAGACACCCATGAC (sugars e5 d10 e5, PS) | – | – | 4 | – |
| AACTTAGGCATGCTTCCTCC (sugars e5 d10 e5, PS) | 44% | 89% | – | – |
| AACTTCTTCTGGACCCATCG (sugars e5 d10 e5, PS) | – | – | 28 | – |
| AAGATTCATAACTATATCTA (sugars e5 d10 e5, PS) | – | – | 6 | – |
| AAGCCTCGGTGTCCTCT (sugars e3 d10 e4, PS) | 56% and 70% | 87% and 90% | – | – |
| AAGGACAGAGGTTCAACATC (sugars e5 d10 e5, PS) | 7% | 67% | – | – |
| AAGGGTATTCTGCTCATAAA (sugars e5 d10 e5, PS) | 48% | 88% | – | – |
| AAGGTAAACTGAGGCCACCA (sugars e5 d10 e5, PS) | – | – | 37 | – |
| AAGTGACAAAGTCTATCAGG (sugars e5 d10 e5, PS) | 61% | 87% | – | – |
| AATAACCCACAGACACCCAT (sugars e5 d10 e5, PS) | – | – | 0 | – |
| AATGTCACAAGTTCACAAAC (sugars e5 d10 e5, PS) | – | – | 4 | – |

| Sequence | target mRNA inhibition ([1]; HepG2, 2.5 µM) | target mRNA inhibition ([1]; HepG2, 10 µM) | target mRNA inhibition ([1]; HepG2, 0.12 µM) [%] | further results |
| --- | --- | --- | --- | --- |
| AATTTCTTTTAAATAACCCA (sugars e5 d10 e5, PS) | – | – | 0 | – |
| ACAAAGCCCTTGCGGTTCCG (sugars e5 d10 e5, PS) | – | – | 35 | – |
| ACAACAGCAAATATACACCA (sugars e5 d10 e5, PS) | 87% | 56% | – | – |
| ACACCAGGATCTCAGTCACT (sugars e5 d10 e5, PS) | – | – | 42 | – |
| ACAGGACCCACTGGAGCACT (sugars e2 d13 e5, PS) | – | – | 68 | – |
| ACAGTGGTGATGGGCTTGGA (sugars e5 d10 e5, PS) | – | – | 52 | – |
| ACCACAGCGATAATCACACA (sugars e5 d10 e5, PS) | 54% | 89% | – | – |
| ACCAGGGCCTCCATGTACAT (sugars e2 d13 e5, PS) | – | – | 50 | – |
| TTCTCACTACAGGTACT (sugars e2 k2 d9 k2 e2, PS) | – | – | – | target mRNA inhibition ([2]; HepG2, 5 µM): 37% |
| TTCTGACAAGTTTAATA (sugars e3 k2 d7 k2 e3, PS) | – | – | – | target mRNA inhibition ([2]; HepG2, 3 µM): 6% |
| TTGCCCAAGTCATCTGC (sugars e3 k2 d7 k2 e3, PS) | – | – | – | target mRNA inhibition ([2]; HepG2, 3 µM): 92% |
| TTGGATTCTTTTAATAG (sugars e2 k2 d8 k2 e3, PS) | – | – | – | target mRNA inhibition ([2]; HepG2, 5 µM): 23% |
| TTTATTCACAGGCTTGA (sugars e2 k2 d8 k2 e3, PS) | – | – | – | target mRNA inhibition ([2]; HepG2, 5 µM): 44% |
| TTTATTGGGCGATCCCA (sugars e2 k2 d9 k2 e2, PS) | – | – | – | target mRNA inhibition ([2]; HepG2, 4 µM): 46% |
| TTTATTGGGCGATCCCA (sugars e3 k2 d7 k2 e3, PS) | – | – | – | target mRNA inhibition ([2]; HepG2, 3 µM): 20% |
| TTTCCACCTTTGCCCAA (sugars e3 k2 d7 k2 e3, PS) | – | – | – | target mRNA inhibition ([2]; HepG2, 3 µM): 78% |
| TTTTAGTTTGAATTTGGATT (sugars e5 d10 e5, PS) | – | – | – | target mRNA inhibition ([2]; HepG2, 5 µM): 0% |
| TTTTATTCACAGGCTTG (sugars e2 k2 d8 k2 e3, PS) | – | – | – | target mRNA inhibition ([2]; HepG2, 5 µM): 43% |
| TTTTTTAGTTTGAATTTGGA (sugars e5 d10 e5, PS) | – | – | – | target mRNA inhibition ([2]; HepG2, 5 µM): 0% |
